We go through twelve compounds from patent US8524911B2, “3-arylamino pyridine derivatives” (Merck Serono SA, priority 2004, dated 2013).

Bounds are passed on as bounds.

One test has as its target human MEK1 (Homo sapiens, UniProt Q02750). Description: MEK-1 Enzyme Assay (LANCE-HTRF). In kind it is biochemical. To be noted: 100 nM MEK1, 15 μM ATP, 300 nM ERK2, two hours; read-out: MEK inhibition. The protocol:
Assay 1: MEK-1 Enzyme Assay (LANCE-HTRF)
The activity of the compounds of the present invitation may be determined by the following procedure; Inhibition of human MEK1 kinase activity was monitored with a homogenous, fluorescence based assay. The assay uses time resolved fluorescence resonance energy transfer to probe for phosphorylation of ERK1 by MEK1. The assay is carried out in low volume 96 well microtiterplates. […] After two hours, 5 nM Europium-anti-PY20 (Perkin Elmer) and 50 nM Anti-GST-Allophycocyanin (CisBio) in buffer containing 50 mM EDTA and 0.05% BSA are added and the reaction incubated for one hour in the dark. Time-resolved fluorescence is measured using a LJL-Analyst (Molecular Devices) with an excitation wavelength of 340 nm and an emission wavelength of 665 nm. The final concentration of DMSO is 2%.
In general terms: In TR-FRET formats the signal depends on donor and acceptor labels being close together.

In the next test the test system is Murine colon C26 cells. The experiment in a line: Tumor cell proliferation assay (ATP Lite), C26. To be noted: Mus musculus, 96 h, 4 days. Type of test: cell-based. The protocol:
(§1) Assay 2: Tumor Cell Proliferation Assays (ATP Lite)
(§2) Murine colon C26, human melanoma A375 and MeI5 or human pancreatic MiaPaCa-2 cells were plated in 96 well Corning white plates (1500 cells/well for C26, and 2000 cells/well for A375, and MiaPaCa-2) and cultured overnight at 37° C. in 5% CO2. Inhibitors were serially diluted in 100% DMSO and subsequently added to cells to reach a final concentration of 0.25% DMSO. The cells were incubated for 4 days in the presence of test compounds in cell growth media (DMEM with 10% fetal bovine serum, 2 mM glutamine for C26, and MiaPaCa-2, and RPMI with 10% fetal bovine serum, 2 mM glutamine for A375). Cell proliferation was quantitated using the ATP lite cell proliferation kit (Packard). Columns 4-6 show the concentration of compounds required to induce 50% cell death (IC50 in μM) of […]. With “+” meaning 3 μM<IC50≦10 μM and “++” IC50≦3 μM and “n.d.” means not determined. Few compounds were also tested on human melanoma cell MeI5.

Test [1] deals with human melanoma A375 cells. Description: Tumor cell proliferation assay (ATP Lite), A375. In kind it is cell-based. To be noted: A-375, 96 h, 4 days. How it is done:
as §1, §2

For test [2], the system named is human pancreatic MiaPaCa-2 cells. The experiment in a line: Tumor cell proliferation assay (ATP Lite), MiaPaCa-2. The note with it: MIA PaCa-2, 96 h, 4 days. Type of test: cell-based. How it is done:
as §1, §2

human MEK1, sequence (Q02750 whole entry): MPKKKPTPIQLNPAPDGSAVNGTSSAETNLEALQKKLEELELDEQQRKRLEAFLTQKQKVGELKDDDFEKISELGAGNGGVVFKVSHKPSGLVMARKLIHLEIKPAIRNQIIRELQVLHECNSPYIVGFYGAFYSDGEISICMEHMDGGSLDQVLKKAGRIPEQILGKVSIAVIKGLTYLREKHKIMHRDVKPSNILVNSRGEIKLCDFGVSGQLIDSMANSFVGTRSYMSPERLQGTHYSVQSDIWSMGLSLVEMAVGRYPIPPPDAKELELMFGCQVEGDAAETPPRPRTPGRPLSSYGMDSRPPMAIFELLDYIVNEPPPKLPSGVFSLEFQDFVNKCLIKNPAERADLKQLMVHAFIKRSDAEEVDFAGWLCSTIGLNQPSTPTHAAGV

For the compound `C[C@@H](O)CNC(=O)c1ccncc1Nc1ccc(I)cc1F` [Example 48, 3-[(2-fluoro-4-iodophenyl)amino]-N-[(2R)-2-hydroxypropyl]-isonicotinamide], the IC50 was below 1000 nM on human MEK1, at most 3 µM in the test with Murine colon C26 cells, at most 3 µM in test [1] and at most 3 µM in test [2].
On to `O=C(NC1CCC1)c1ccncc1Nc1ccc(I)cc1F` [Example 58, N-cyclobutyl-3-[(2-fluoro-4-iodophenyl)amino]isonicotinamide], for which the IC50 on human MEK1 was below 1000 nM; in the test on Murine colon C26 cells it was at most 3 µM; in test [1], at most 3 µM; in test [2] it was at most 3 µM.
On to `CC(=O)NCCNC(=O)c1ccncc1Nc1ccc(I)cc1Cl` [Example 64, N-(2-Acetylamino-ethyl)-3-(2-chloro-4-iodo-phenylamino)-isonicotinamide], for which the IC50 was below 1000 nM at human MEK1, 3 to 10 µM in the test with Murine colon C26 cells, at most 3 µM in test [1] and 3 to 10 µM in test [2].
As for `O=C(NC1CC1)c1ccncc1Nc1ccc(I)cc1F` [Example 47, N-cyclopropyl-3-[(2-fluoro-4-iodophenyl)amino]isonicotinamide], the IC50 was below 1000 nM on human MEK1, at most 3 µM in the test with Murine colon C26 cells, at most 3 µM in test [1] and at most 3 µM in test [2].
For `O=C(NCCc1cccc(Cl)c1)c1ccncc1Nc1ccc(I)cc1F` [Example 29, N-[2-(3-chlorophenyl)ethyl]-3-[(2-fluoro-4-iodophenyl)-amino]isonicotinamide], the IC50 is below 1000 nM at human MEK1, 3 to 10 µM with Murine colon C26 cells, at most 3 µM in test [1] and 3 to 10 µM in test [2].
On to `O=C(NCCOc1ccccc1)c1ccncc1Nc1ccc(I)cc1F` [Example 26, 3-[(2-fluoro-4-iodophenyl)amino]-N-(2-phenoxyethyl)-isonicotinamide], for which the IC50 was below 1000 nM at human MEK1, 3 to 10 µM in the test with Murine colon C26 cells, at most 3 µM in test [1] and 3 to 10 µM in test [2].
`O=C(NCCCn1ccnc1)c1ccncc1Nc1ccc(I)cc1F` [Example 20, 3-[(2-fluoro-4-iodophenyl)amino]-N-[3-(1H-imidazol-1yl)propyl]-isonicotinamide]: the IC50 is below 1000 nM on human MEK1, at most 3 µM in the test on Murine colon C26 cells, at most 3 µM in test [1] and at most 3 µM in test [2].
Regarding `NC(=O)c1ccncc1Nc1ccc(I)cc1` [Example 67, 3-(4-iodo-phenylamino)-isonicotinamide], the IC50 at human MEK1 was below 1000 nM; with Murine colon C26 cells, at most 3 µM; in test [1] it was at most 3 µM; in test [2] it was at most 3 µM.
Take `CONC(=O)c1ccncc1Nc1ccc(I)cc1Cl` [Example 80, N-methoxy-3-(2-chloro-4-iodo-phenylamino)-isonicotinamide]: the IC50 at human MEK1 was below 1000 nM; in test [1] it was at most 3 µM; in test [2], 3 to 10 µM.
For `O=C(NNC(=O)c1n[nH]c2ccccc12)c1ccncc1Nc1ccc(I)cc1F` [Example 28, N′-{3-[(2-fluoro-4-iodophenyl)amino]isonicotinoyl}-1H-indazole-3-carbohydrazide], the IC50 on human MEK1 was below 1000 nM; in the test on Murine colon C26 cells, 3 to 10 µM; in test [1] it was at most 3 µM; in test [2], 3 to 10 µM.
As to `COCCNC(=O)c1cc(Br)ncc1Nc1ccc(I)cc1F` [Example 87, 2-Bromo-5-(2-fluoro-4-iodo-phenylamino)-N-(2-methoxy-ethyl)-isonicotinamide], the IC50 at human MEK1 was below 1000 nM; in test [1] it was at most 3 µM; in test [2] it was 3 to 10 µM.
`CC(C)C(C)NC(=O)c1ccncc1Nc1ccc(I)cc1F` (stereo not drawn) [Example 62, N-(1,2-dimethylpropyl)-3-[(2-fluoro-4-iodophenyl)amino]-isonicotinamide]: the IC50 is below 1000 nM at human MEK1, 3 to 10 µM in the test with Murine colon C26 cells and at most 3 µM in test [1].
